Data published in publication PMC4604124, “In Vitro Characterization of the Pharmacological Properties of the Anti-Cancer Chelator, Bp4eT, and Its Phase I Metabolites” (PLoS ONE, 2015).
Several values for one entry are separate records, joined by “and”; a condition that tells them apart may be missing. Equal entries are not always repeated. Where two headings read alike, the source gives them in different places.

How the values were obtained:
[1] = system: HCT116 human colorectal carcinoma cells; test: MTT cytotoxicity assay, HCT116 cells; format: cell-based; conditions: for IC50: MTT
How it was run: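 Cells were seeded 24 h at 37°C (MCF-7 5,000, HCT116 and A549 2,000, H9c2 10,000 cells/well; H9c2 then given serum- and pyruvate-free DMEM for 24 h) and exposed to compounds for 72 h in medium with 0.1% DMSO. MTT absorbance was read at 570 nm minus 690 nm; IC50 came from viability relative to untreated controls.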

caspase 8 = test: Caspase activity, luminescent kit, caspase 8; format: cell-based, human; conditions: for kaspáza 8, raw signal / kaspáza 8, signal / viabilita: individual experiments by date; for kaspáza 8, raw signal, průměry / kaspáza 8, % kontroly / kaspáza 8, signal / viabilita, průměry: mean; for kaspáza 8, % kontroly / kaspáza 8, signal / viabilita / kaspáza 8, signal / viabilita, průměry: normalised to viability;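 for all read-outs here: MCF-7 cells treated at 100 nM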
[2] = MTT cytotoxicity assay, 3T3 cells; format: cell-based, mouse; conditions: mouse, 3T3 mouse embryo fibroblasts, 3T3, 10 000 b/j; for viability at 72 h, 1 μM: koncentrace 1 μM; for viability at 72 h, 3 μM: koncentrace 3 μM; for viability at 72 h, 10 μM: koncentrace 10 μM; for viability at 72 h, 30 μM: koncentrace 30 μM; for viability at 72 h, 100 μM: koncentrace 100 μM; for viability at 72 h, 300 μM: koncentrace 300 μM; for viability at 72 h, 1000 μM: koncentrace 1000 μM
How it was run: (§1)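 3T3 fibroblast viability was measured with an MTT assay, reading optical density at λ = 570 nm with λ = 690 nm background subtracted on a Tecan Infinite 200M. Results were expressed as a percentage of untreated controls (100%) and reported as mean ± SD. IC50 values came from CalcuSyn 2.0 after a 72 h/37°C incubation.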

[3] = system: 3T3 mouse embryo fibroblasts; test: MTT cytotoxicity assay, 3T3 cells; format: cell-based; conditions: for MTT viability (0 = 100): 3T3, 10 000 b/j, individual experiments
How it was run: as §1

MCF-7 cells = test: Cell cycle analysis by flow cytometry (propidium iodide); format: cell-based, human; conditions: 0.1 μM, 72 h, control 33%
Description: To examine the effect of the agents on the cell cycle, MCF-7 cells were seeded in 60 mm Petri dishes at a density of 240,000 cells/dish and incubated with Bp4eT or its metabolites for 72 h/37°C. The cells were then harvested, fixed by ethanol and stained by propidium iodide (Molecular Probes, Eugene, OR, USA) for 30 min/37°C, as described previously. Cells were analyzed using Accuri C6 flow cytometer (Becton Dickinson and Company, San Jose, CA USA). Propidium iodide was excited at λex = 488 nm and fluorescence analyzed at λem = 585 nm (FL-2) with a total of 10,000 events collected per analysis.
SigmaStat for Windows 3.5 (Systat Software, San Jose, CA, USA) statistical software package was utilized to analyze results. The data are expressed as the mean ± SD of a given number of experiments. Statistical significance was determined using a one-way ANOVA with a Bonferroni post-hoc test or Student’s t-test. The results were considered to be statistically significant when p < 0.05. The IC50 values were calculated using CalcuSyn 2.0 software (Biosoft, Cambridge, UK). Cell cycle analysis was evaluated using MultiCycle AV Software (Phoenix Flow Systems, San Diego, CA, USA).

caspase 9 = test: Caspase activity, luminescent kit, caspase 9; format: cell-based, human; conditions: for kaspáza 9, raw signal / kaspáza 9, signal / viabilita: individual experiments by date; for kaspáza 9, raw signal, průměry / kaspáza 9, % kontroly / kaspáza 9, signal / viabilita, průměry: mean; for kaspáza 9, % kontroly / kaspáza 9, signal / viabilita / kaspáza 9, signal / viabilita, průměry: normalised to viability;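 for all read-outs here: MCF-7 cells treated at 100 nM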
[4] = individual experiments, read-out: MTT viability (0 = 100)
[5] = mean, read-out: MTT viability (0 = 100), průměr

## CCNC(=O)NN=C(c1ccccc1)c1ccccn1 [E-Bp4eS, 2-benzoylpyridine 4-ethylsemicarbazone]
[1]; 3T3/HCT116
  Therapeutic index, IC50 non-cancerous cells / IC50 neoplastic cells: >10.5
[1]; H9c2/HCT116
  Therapeutic index, IC50 non-cancerous cells / IC50 neoplastic cells: 9.3
[1]; HCT116, 72 h/37°C, mean ± SD, n ≥ 4
  IC50: 95.4 ± 10.4 µM
[1]; HCT116, 2 000 b/j, 1 μM, průměr (mean), sheet E-Bp4eS
  MTT, relative to control (0 = 100): 93.86
[1]; HCT116, 2 000 b/j, 1 μM, single experiment (date), sheet E-Bp4eS
  MTT, relative to control (0 = 100): 90.5387 and 95.2075 and 90.3432 and 99.3608
[1]; HCT116, 2 000 b/j, 3 μM, průměr (mean), sheet E-Bp4eS
  MTT, relative to control (0 = 100): 91.05
[1]; HCT116, 2 000 b/j, 3 μM, single experiment (date), sheet E-Bp4eS
  MTT, relative to control (0 = 100): 88.1499 and 86.4536 and 88.7606 and 100.823
[1]; HCT116, 2 000 b/j, 10 μM, průměr (mean), sheet E-Bp4eS
  MTT, relative to control (0 = 100): 89.35
[1]; HCT116, 2 000 b/j, 10 μM, single experiment (date), sheet E-Bp4eS
  MTT, relative to control (0 = 100): 79.5919 and 93.1715 and 88.2723 and 96.3507
[1]; HCT116, 2 000 b/j, 30 μM, průměr (mean), sheet E-Bp4eS
  MTT, relative to control (0 = 100): 86.47
[1]; HCT116, 2 000 b/j, 30 μM, single experiment (date), sheet E-Bp4eS
  MTT, relative to control (0 = 100): 82.3738 and 90.947 and 82.3476 and 90.2168
[1]; HCT116, 2 000 b/j, 100 μM, průměr (mean), sheet E-Bp4eS
  MTT, relative to control (0 = 100): 59.19
[1]; HCT116, 2 000 b/j, 100 μM, single experiment (date), sheet E-Bp4eS
  MTT, relative to control (0 = 100): 61.842 and 75.8026 and 45.1438 and 53.9757
[1]; HCT116, 2 000 b/j, 300 μM, průměr (mean), sheet E-Bp4eS
  MTT, relative to control (0 = 100): 9.27
[1]; HCT116, 2 000 b/j, 1000 μM, průměr (mean), sheet E-Bp4eS
  MTT, relative to control (0 = 100): 7.18
[1]; HCT116, 2 000 b/j, 1000 μM, single experiment (date), sheet E-Bp4eS
  MTT, relative to control (0 = 100): 7.957 and 7.9705 and 6.656 and 6.131
[1]; HCT116, 2 000 b/j, single experiment (date), sheet E-Bp4eS
  IC50: 108 µM and 85.2 µM and 99.1 µM
[1]; Homo sapiens, HCT-116, HCT116, 2 000 b/j, průměr (mean), sheet E-Bp4eS
  IC50: 95.4 µM
[1]; Homo sapiens, HCT-116, HCT116, 2 000 b/j, single experiment (date), sheet E-Bp4eS
  IC50: 89.2 µM
Caspase 8; 3 hodiny
  kaspáza 8, raw signal: 1819 and 1041 and 1191.5 and 952.5
  kaspáza 8, raw signal, průměry: 1251
  kaspáza 8, % kontroly: 93.96 % kontroly
  kaspáza 8, signal / viabilita: 18.5259 and 10.6022 and 12.135 and 9.701
  kaspáza 8, signal / viabilita, průměry: 12.741
Caspase 8; 24 hodin
  kaspáza 8, raw signal: 1530 and 1548 and 1983.5 and 1503
  kaspáza 8, raw signal, průměry: 1641.12
  kaspáza 8, % kontroly: 104.70 % kontroly
  kaspáza 8, signal / viabilita: 15.3819 and 15.5629 and 19.9412 and 15.1105
  kaspáza 8, signal / viabilita, průměry: 16.4991
Caspase 8; 72 hodin
  kaspáza 8, raw signal: 6786.5 and 6488.5 and 6545 and 6983
  kaspáza 8, raw signal, průměry: 6700.75
  kaspáza 8, % kontroly: 98.51 % kontroly
  kaspáza 8, signal / viabilita: 69.3845 and 66.3378 and 66.9154 and 71.3935
  kaspáza 8, signal / viabilita, průměry: 68.5078
[2]; [4]
  viability at 72 h, 1 μM: 91%
  viability at 72 h, 3 μM: 96.2%
  viability at 72 h, 10 μM: 91.6%
  viability at 72 h, 30 μM: 86.3%
  viability at 72 h, 100 μM: 87.1%
  viability at 72 h, 300 μM: 85.3%
  viability at 72 h, 1000 μM: 74.1%
[2]; [5]
  viability at 72 h, 1 μM: 98%
  viability at 72 h, 3 μM: 94.8%
  viability at 72 h, 10 μM: 92.9%
  viability at 72 h, 30 μM: 90.2%
  viability at 72 h, 100 μM: 83.9%
  viability at 72 h, 300 μM: 81.5%
  viability at 72 h, 1000 μM: 66.7%
[3]; koncentrace 1 μM
  MTT viability (0 = 100): 96.8721 and 104.341 and 100.156 and 97.6643
[3]; koncentrace 3 μM
  MTT viability (0 = 100): 91.697 and 99.6923 and 92.7572 and 93.5961
[3]; koncentrace 10 μM
  MTT viability (0 = 100): 87.504 and 95.4305 and 94.9836 and 95.1509
[3]; koncentrace 30 μM
  MTT viability (0 = 100): 95.2772 and 94.6873 and 87.6265 and 86.7904
[3]; koncentrace 100 μM
  MTT viability (0 = 100): 89.4336 and 75.046 and 83.8477
[3]; koncentrace 300 μM
  MTT viability (0 = 100): 87.9502 and 69.8243 and 82.8158
[3]; koncentrace 1000 μM
  MTT viability (0 = 100): 61.3011 and 59.7855 and 71.6828
[3]; Mus musculus, Fibroblast, 72 h, 3T3, 72 h/37°C, MTT, mean ± SD, n ≥ 4, read-out: IC50
  IC50: > 1000 µM
MCF-7 cells
  Percentage of cells in the G2/M phase: slight, but significant (p < 0.01–0.05) decrease
Caspase 9; 3 hodiny
  kaspáza 9, raw signal: 5048 and 2733 and 3173 and 2706.5
  kaspáza 9, raw signal, průměry: 3415.12
  kaspáza 9, % kontroly: 105.55 % kontroly
  kaspáza 9, signal / viabilita: 51.4121 and 27.8346 and 32.3159 and 27.5647
  kaspáza 9, signal / viabilita, průměry: 34.7818
Caspase 9; 24 hodin
  kaspáza 9, raw signal: 3856 and 3865 and 5378.5 and 4257
  kaspáza 9, raw signal, průměry: 4339.12
  kaspáza 9, % kontroly: 110.34 % kontroly
  kaspáza 9, signal / viabilita: 38.7665 and 38.857 and 54.073 and 42.798
  kaspáza 9, signal / viabilita, průměry: 43.6236
Caspase 9; 72 hodin
  kaspáza 9, raw signal: 22791 and 20686 and 21610 and 23932
  kaspáza 9, raw signal, průměry: 22254.8
  kaspáza 9, % kontroly: 104.60 % kontroly
  kaspáza 9, signal / viabilita: 233.013 and 211.492 and 220.939 and 244.678
  kaspáza 9, signal / viabilita, průměry: 227.53
